Measured values as given in ChEMBL document CHEMBL3885881, “DrugMatrix”.

Organism: Rattus norvegicus
Assay: DrugMatrix - Regimen: Daily Repeat
Format: toxicity, organism-based, Sprague-Dawley
Set-up: regimen Daily Repeat, gender Male, age 6-8 weeks
Conditions: in vivo, iv, vehicle 100 % SALINE; for ABSOLUTE BASOPHIL / ABSOLUTE EOSINOPHIL / ABSOLUTE LYMPHOCYTE / ABSOLUTE MONOCYTE / ABSOLUTE SEGMENTED NEUTROPHIL / BASOPHIL / EOSINOPHIL / ERYTHROCYTE COUNT / HEMATOCRIT / HEMOGLOBIN / LEUKOCYTE COUNT / LYMPHOCYTE / MEAN CORPUSCULAR HEMOGLOBIN / MEAN CORPUSCULAR HEMOGLOBIN CONCENTRATION / MEAN CORPUSCULAR VOLUME / MONOCYTE / NEUTROPHIL / NUCLEATED RED BLOOD CELLS / PLATELET COUNT: tissue Blood; for ALANINE AMINOTRANSFERASE / ALBUMIN / ALKALINE PHOSPHATASE / ASPARTATE AMINOTRANSFERASE / BLOOD UREA NITROGEN / CARBON DIOXIDE / CHLORIDE / CHOLESTEROL / CREATINE PHOSPHOKINASE / CREATININE / GLUCOSE / LACTATE DEHYDROGENASE / LIPASE / PHOSPHORUS / POTASSIUM / SODIUM / TOTAL BILIRUBIN / TOTAL PROTEIN / URIC ACID: tissue Plasma
[1] = 23 mg/kg, 120 h, dose level High, time 5 day
[2] = […], 72 h, dose 2.3 mg/Kg, dose level Low, time 3 day
[3] = […], 120 h, dose 2.3 mg/Kg, dose level Low, time 5 day

## COC(=O)C[C@](O)(CCC(C)(C)O)C(=O)O[C@@H]1C(OC)=C[C@]23CCCN2CCc2cc4c(cc2[C@H]13)OCO4 [HARRINGTONINE]
[1]
  ABSOLUTE BASOPHIL: 0 CELLS/uL
  ABSOLUTE EOSINOPHIL: 0 CELLS/uL
  ABSOLUTE LYMPHOCYTE: 5612 CELLS/uL
  ABSOLUTE MONOCYTE: 134.67 CELLS/uL
  ABSOLUTE SEGMENTED NEUTROPHIL: 53.33 CELLS/uL
  BASOPHIL: 0%
  EOSINOPHIL: 0%
  ERYTHROCYTE COUNT: 5.85 x10E6/uL
  HEMATOCRIT: 36.17%
  HEMOGLOBIN: 13.93 G/DL
  LEUKOCYTE COUNT: 5.8 x10E3/uL
  LYMPHOCYTE: 96.67%
  MEAN CORPUSCULAR HEMOGLOBIN: 23.83 pg
  MEAN CORPUSCULAR HEMOGLOBIN CONCENTRATION: 38.53 G/DL
  MEAN CORPUSCULAR VOLUME: 61.87 fL
  MONOCYTE: 2.33%
  NEUTROPHIL: 1%
  NUCLEATED RED BLOOD CELLS: 0 /100WBC
  PLATELET COUNT: 414 x10E3/uL
  ALANINE AMINOTRANSFERASE: 83 u/L
  ALBUMIN: 3.47 G/DL
  ALKALINE PHOSPHATASE: 214 u/L
  ASPARTATE AMINOTRANSFERASE: 226.33 u/L
  BLOOD UREA NITROGEN: 15.67 mg/dL
  CARBON DIOXIDE: 24 mmol/L
  CHLORIDE: 100.33 MEQ/L
  CHOLESTEROL: 71 mg/dL
  CREATINE PHOSPHOKINASE: 222 u/L
  CREATININE: 0.27 mg/dL
  GLUCOSE: 151.67 mg/dL
  LACTATE DEHYDROGENASE: 292.33 u/L
  LIPASE: 7.33 u/L
  PHOSPHORUS: 9.13 mg/dL
  POTASSIUM: 6.23 MEQ/L
  SODIUM: 143.4 MEQ/L
  TOTAL BILIRUBIN: 0.23 mg/dL
  TOTAL PROTEIN: 5.73 G/DL
  URIC ACID: 1.2 mg/dL
[2]
  ABSOLUTE BASOPHIL: 0 CELLS/uL
  ABSOLUTE EOSINOPHIL: 41.67 CELLS/uL
  ABSOLUTE LYMPHOCYTE: 11224.33 CELLS/uL
  ABSOLUTE MONOCYTE: 81.33 CELLS/uL
  ABSOLUTE SEGMENTED NEUTROPHIL: 586 CELLS/uL
  BASOPHIL: 0%
  EOSINOPHIL: 0.33%
  ERYTHROCYTE COUNT: 5.44 x10E6/uL
  HEMATOCRIT: 34.9%
  HEMOGLOBIN: 13.83 G/DL
  LEUKOCYTE COUNT: 11.93 x10E3/uL
  LYMPHOCYTE: 94%
  MEAN CORPUSCULAR HEMOGLOBIN: 25.47 pg
  MEAN CORPUSCULAR HEMOGLOBIN CONCENTRATION: 39.63 G/DL
  MEAN CORPUSCULAR VOLUME: 64.17 fL
  MONOCYTE: 0.67%
  NEUTROPHIL: 5%
  NUCLEATED RED BLOOD CELLS: 0 /100WBC
  PLATELET COUNT: 1133.33 x10E3/uL
  ALANINE AMINOTRANSFERASE: 48.67 u/L
  ALBUMIN: 4.13 G/DL
  ALKALINE PHOSPHATASE: 303.67 u/L
  ASPARTATE AMINOTRANSFERASE: 64.33 u/L
  BLOOD UREA NITROGEN: 15.67 mg/dL
  CARBON DIOXIDE: 31.67 mmol/L
  CHLORIDE: 101 MEQ/L
  CHOLESTEROL: 51 mg/dL
  CREATINE PHOSPHOKINASE: 184 u/L
  CREATININE: 0.17 mg/dL
  GLUCOSE: 163 mg/dL
  LACTATE DEHYDROGENASE: 69 u/L
  LIPASE: 8.67 u/L
  PHOSPHORUS: 12.37 mg/dL
  POTASSIUM: 6.49 MEQ/L
  SODIUM: 146.83 MEQ/L
  TOTAL BILIRUBIN: 0.2 mg/dL
  TOTAL PROTEIN: 5.5 G/DL
  URIC ACID: 2 mg/dL
[3]
  ABSOLUTE BASOPHIL: 0 CELLS/uL
  ABSOLUTE EOSINOPHIL: 0 CELLS/uL
  ABSOLUTE LYMPHOCYTE: 10385.33 CELLS/uL
  ABSOLUTE MONOCYTE: 95.33 CELLS/uL
  ABSOLUTE SEGMENTED NEUTROPHIL: 1152.67 CELLS/uL
  BASOPHIL: 0%
  EOSINOPHIL: 0%
  ERYTHROCYTE COUNT: 5.81 x10E6/uL
  HEMATOCRIT: 35.2%
  HEMOGLOBIN: 13.83 G/DL
  LEUKOCYTE COUNT: 11.63 x10E3/uL
  LYMPHOCYTE: 90.67%
  MEAN CORPUSCULAR HEMOGLOBIN: 23.83 pg
  MEAN CORPUSCULAR HEMOGLOBIN CONCENTRATION: 39.3 G/DL
  MEAN CORPUSCULAR VOLUME: 60.6 fL
  MONOCYTE: 0.67%
  NEUTROPHIL: 8.67%
  NUCLEATED RED BLOOD CELLS: 0.33 /100WBC
  PLATELET COUNT: 1139 x10E3/uL
  ALANINE AMINOTRANSFERASE: 52 u/L
  ALBUMIN: 4.03 G/DL
  ALKALINE PHOSPHATASE: 408.33 u/L
  ASPARTATE AMINOTRANSFERASE: 89.67 u/L
  BLOOD UREA NITROGEN: 18.67 mg/dL
  CARBON DIOXIDE: 25 mmol/L
  CHLORIDE: 102 MEQ/L
  CHOLESTEROL: 60 mg/dL
  CREATINE PHOSPHOKINASE: 576 u/L
  CREATININE: 0.16 mg/dL
  GLUCOSE: 170.33 mg/dL
  LACTATE DEHYDROGENASE: 158.67 u/L
  LIPASE: 8.67 u/L
  PHOSPHORUS: 12.3 mg/dL
  POTASSIUM: 6.27 MEQ/L
  SODIUM: 145.13 MEQ/L
  TOTAL BILIRUBIN: 0.2 mg/dL
  TOTAL PROTEIN: 5.73 G/DL
  URIC ACID: 1.6 mg/dL
